Assay results published in PMC11513854, “De novo GTP synthesis is a metabolic vulnerability for the interception of brain metastases” (Cell Reports Medicine, 2024).

Legend:
lung-BMIC line (BT478) = assay: Dose-response assay, PrestoBlue; assay type: cell-based, human; settings: Homo sapiens; BT478, 72-h treatment, PrestoBlue; N/A, not applicable; read-out: Lung-BM IC50
Procedure: (§1) For preliminary drug screening, drugs were plated at a concentration of 10 μM in a 96-well plate, in triplicate at a density of 1000 cells/well, and incubated at 37°C with a humidified atmosphere of 5% CO2 for three days. Vehicle controls for cell death are used in each functional experiment. Following treatment, PrestoBlue (20 μL, Invitrogen), a resazurin-based cell viability reagent and fluorescence indicator of cell metabolism, was added to each well to estimate proliferation approximately 2 h prior to measuring fluorescence intensity via FLUOstar Omega Fluorescence 556 Microplate reader (BMG LABTECH) at an excitation and emission wavelength of 540 nm and 590 nm, respectively. Results were analyzed using Omega analysis software.
(§2) Dose-response assays were conducted using the same protocol apart from drugs being plated using 2-fold serial dilutions (20 μM - 39 nM) as previously described.[66] The half maximal inhibitory concentration (IC50) is determined by plotting percent cell viability by the logarithmic concentration of drug. IC80 concentrations will be used for subsequent functional assays (cell proliferation, sphere formation), as determined by the following formula: ICF=100−F/F^1/H×IC50 where F = fraction of maximal response and H = hill slope.

neural stem cells = assay: Dose-response assay, PrestoBlue, normal brain cell control; assay type: cell-based; settings: Homo sapiens, 72-h treatment, N/A, not applicable
Text: BM cell lines from primary lung (BT478, BT530), breast (BT923, BT930) and melanoma (BT673, BT917) cancers are derived from primary patient samples with written consent from the patients and approved by the Hamilton Health Sciences McMaster Health Sciences Research Ethics Board (REB #07366), in compliance with Canada’s Tri-Council Policy Statement on the Ethical Conduct for Research Involving Humans and International Ethical guidelines for Biomedical Research Involving Human Subjects. MDA-MB-231 was purchasedfrom American Type Culture Collection and used to generate a brain metastasis derivate following injection into the mammary fat pad and isolation from the brain at human endpoint. Cell lines are maintained in NeuroCult Complete (NCC) media consisting of NeuroCult NS-A Basal Medium (Stemcell technology #05750) and supplemented with 50 mL of NeuroCult Supplement, 20 ng/mL epidermal growth factor (EGF), 10 ng/mL fibroblast growth factor (FGF), 2 μg/mL heparin and 1% penicillin-streptomycin. Human fetal neural stem cells (hNSCs) are derived in-house using a previously described protocol.[62] Normal human astrocytes are purchased from American Type Culture Collection. All cell lines were maintained at 37°C with a humidified atmosphere of 5% CO2.
as §2, with “The” for “Dose-response assays were conducted using the same protocol apart from drugs being plated using 2-fold serial dilutions (20 μM - 39 nM) as previously described.[66] The”

MDR1-MDCKII cells = assay: Bi-directional permeability via MDR1-MDCKII cells; assay type: in vitro ADME
Procedure: (§3) MDR1-MDCKII permeability assays were performed by Wuxi AppTec Co. Briefly, MDR1-MDCK1 cells were seeded onto polycarbonate membranes in 96-well insert system plates and allowed to develop into monolayers. […] The plate was incubated for 2.5 h (37°C, 5% CO2) and the media was sampled on either side and the compound present was quantified by LC-MS/MS and the concentrations were used to calculate the efflux ratio. Digoxin (10 μM), nadolol (2 μM), and metoprolol (2 μM) were used as controls.

MDR1 = assay: Bi-directional permeability via MDR1-MDCKII cells; assay type: in vitro ADME; settings: dog, MDCK-MDR1, pH 7.4; 2 μM (digoxin 10 μM), 2.5 h
Procedure: as §3

[1] = Brain homogenate binding, equilibrium dialysis; assay type: in vitro ADME, mouse; settings: CD-1, mouse, pooled brain homogenate, pH 7.4, 37°C
Procedure: The samples were applied to a dialysis well plate and sealed with dialysis membrane. Dialysis buffer (100 mM sodium phosphate pH 7.4, 150 mM NaCl) was applied to opposite side of the membrane (receiver well of the plate), and samples were incubated at 37°C with 5% CO2 for 4 h. Following completion of incubation period, samples were recovered from each side of the dialysis membrane and processed by protein precipitation, and analysis by LC-MS/MS for compound concentration. A corresponding set of samples was also prepared and stop solution (acetonitrile containing 200 ng/mL tolbutamide and 200 ng/mL labetalol) was immediately added, and samples were obtained from each side of the dialysis plate for mass spectrometric analysis.

[2] = test system: patient-derived lung-BMIC line (BT478); assay: Preliminary drug screen of CMap compounds, PrestoBlue viability; assay type: cell-based, human; settings: 10 μM, 72 h, PrestoBlue readout
Text: In this work, we aimed to identify potential druggable targets for BM, by characterizing the transcriptomes of pre-metastatic lung-, breast-, and melanoma-BMICs (see Figure 1A).[13]^,[14] We identified 3,951 genes that are commonly differentially expressed in the pre-metastatic cohort of cells compared to BMICs isolated from established patient tumors (Figure 1C).[14] We input the shared gene signature of pre-metastatic BMICs (defined by the commonly shared gene signature from BMICs of all three primary tumor cohorts) as a query signature for computational CMap[17] analysis to identify compounds that evoke opposing transcriptional changes (see Figure 1A). […]
as §1, with “Vehicle controls for cell death are used in each functional experiment.” left out

Row | SMILES | IC50 (lung-BMIC line (BT478)) | IC50 (neural stem cells) | Rank of Papp (MDR1-MDCKII cells) | Papp A→B at 2.5 h, 2 μM (MDR1) | also measured
1 | COc1c(C)c2c(c(O)c1C/C=C(\C)CCC(=O)OCCN1CCN(C(=O)OC(C)(C)C)CC1)C(=O)OC2 [Compound 2] | 17.1 µM | 353 µM |  |  | 
2 | COc1c(C)c2c(c(O)c1C/C=C(\C)CCC(=O)N1CCN(C)CC1)C(=O)OC2 [Compound 4] |  | 493 µM |  |  | 
3 | COc1c(C)c2c(c(O)c1C/C=C(\C)CCC(=O)NCCCN1CCC1)C(=O)OC2 [Compound 5] |  | 182 µM |  |  | 
4 | COc1c(C)c2c(c(O)c1C/C=C(\C)CCC(=O)NCCN1CCCC1)C(=O)OC2 [Compound 6] | 24.7 µM | 70.8 µM |  |  | 
5 | C[C@H]1O[C@@H](O[C@H]2[C@@H](O)C[C@H](O[C@H]3[C@@H](O)C[C@H](O[C@H]4CC[C@@]5(C)[C@H](CC[C@@H]6[C@@H]5C[C@@H](O)[C@]5(C)[C@@H](C7=CC(=O)OC7)CC[C@]65O)C4)O[C@@H]3C)O[C@@H]2C)C[C@H](O)[C@@H]1O [Digoxin] |  |  | Low | 0.556 ×10⁻⁶ cm/s | Papp B→A at 2.5 h, 2 μM (MDR1): 11.8 ×10⁻⁶ cm/s; efflux ratio at 2.5 h, 2 μM (MDR1): 21.2
6 | COc1c(C)c2c(c(O)c1C/C=C(\C)CCC(=O)OCCN1CCOCC1)C(=O)OC2 [MMF (1), Mycophenolate mofetil] | 48 µM | 31.2 µM |  |  | 
7 | COCCc1ccc(OCC(O)CNC(C)C)cc1 (stereo not drawn) [Metoprolol] |  |  | High | 29.5 ×10⁻⁶ cm/s | 
8 | CC(C)(C)NCC(O)COc1cccc2c1CC(O)C(O)C2 (stereo not drawn) [Nadolol] |  |  | Low | 0.198 ×10⁻⁶ cm/s | 
9 | CC(C)NCC(O)COc1cccc2ccccc12 (stereo not drawn) [Propranolol] |  |  |  |  | fraction unbound at 4 h, 2 μM [1]: 0.023
10 | CN1CCc2cccc3c2[C@H]1Cc1ccc(O)c(O)c1-3 [apomorphine] |  |  |  |  | viability of lung-BMICs (BT478) compared to vehicle control [2]: significantly inhibited BMIC viability
